From patent publication US20230226040A1, “COMBINATION THERAPY COMPRISING AN FGFR INHIBITOR AND A KRAS INHIBITOR” (Incyte Corporation, priority 2021, published 2023)

Assays:
[1] = system: SW-1573; experiment: 5-day Cell Titer Glo combination matrix, Bliss score; type: cell-based; conditions: 5 days
Procedure: Cells were seeded in RPMI medium with 10% HI FBS at a density of 500 cells/well in Greiner, white, clear bottom, 384-well tissue culture treated plates containing 10×10 combination matrices of compound. Plates were incubated at 37° C., 5% CO2 for 5 days. On day 5, Cell Titer Glo reagent was added to the plates and ATP luminescence was detected using a Pherastar FSX reader. The synergy score for the combination effect was calculated using a Bliss score model where the Bliss score=Yab-(Ya+Yb−(YaYb))×100, where Ya and Yb are the monotherapies. Bliss scores >20 are strongly synergistic and a higher Bliss scores indicates a higher level of synergism.
Cells were seeded in RPMI medium with 10% HI FBS at a density of 500 cells/well in Greiner, white, clear bottom, 384-well tissue culture treated plates containing 10×10 combination matrices of compound. Plates were incubated at 37° C., 5% CO2 for 5 days. On day 5, Cell Titer Glo reagent was added to the plates and ATP luminescence was detected using a Pherastar FSX reader. Synergy score for the combination effect is calculated using a Bliss score model where the Bliss score=Yab−(Ya+Yb−(YaYb))×100, where Ya and Yb are the monotherapies. Bliss scores >20 are strongly synergistic and a higher Bliss scores indicates a higher level of synergism.
Cells were seeded in RPMI medium with 10% HI FBS at a density of 500 cells/well in Greiner, white, clear bottom, 384-well tissue culture treated plates containing 10×10 combination matrices of compound. Plates were incubated at 37° C., 5% CO2 for 5 days. On day 5, Cell Titer Glo reagent was added to the plates and ATP luminescence was detected using a Pherastar FSX reader. The synergy score for the combination effect was calculated using a Bliss score model where the Bliss score=Yab−(Ya+Yb−(YaYb))×100, where Ya and Yb are the monotherapies. Bliss scores >20 are strongly synergistic and a higher Bliss scores indicates a higher level of synergism.

[2] = system: MiaPaca2 KRAS G12C resistant clone 11; experiment: 5-day Cell Titer Glo viability and Bliss score; type: cell-based
Procedure: For G12C resistant clone generation, MiaPaca2 parent cells were cultured with increasing concentrations of AMG510 (up to 1μM) over time. The viable cells were re-fed fresh media containing AMG510 weekly. Once the AMG510 resistant cells were growing at normal rates in the presence of 1μM AMG510, they were cloned by limiting dilution. Eight clones were selected for continued passage and further experiments.

[3] = CLONE 11, G12C i 111 nM + Pemi 1 μM, 5-day CTG

CCN1C(=O)N(c2c(F)c(OC)cc(OC)c2F)Cc2cnc3[nH]c(CN4CCOCC4)cc3c21 [Pemigatinib, 3-(2,6-difluoro-3,5-dimethoxyphenyl)-1-ethyl-8-(morpholin-4-ylmethyl)-1,3,4,7-tetrahydro-2H-pyrrolo[3′,2′:5,6]pyrido[4,3-d]pyrimidin-2-one]
Avg. Bliss Score ([1]; SW1573 (Lung, Mesenchymal), FGFR inhibitor in combination with MRTX849): 29.5 | Avg. Bliss Score ([1]; SW-1573 (Lung, Mesenchymal), FGFR inhibitor in combination with Cmpd 3): 19.3 | % viability, Together [2, 3]: 33.8% | BLISS Score [2, 3]: 24.9 | % viability, Pemi 1 μM ([2]; CLONE 11, Pemi alone, 5-day CTG): 87.6% | BLISS Score ([2]; MIA-R clone 11, Pemi 12 nM + KRAS G12C i 0.15 nM, 5 day CTG): 2.35 | BLISS Score ([2]; MIA-R clone 11, Pemi 12 nM + KRAS G12C i 0.46 nM, 5 day CTG): 11.42 | BLISS Score ([2]; MIA-R clone 11, Pemi 12 nM + KRAS G12C i 1.37 nM, 5 day CTG): 6.90 | BLISS Score ([2]; MIA-R clone 11, Pemi 12 nM + KRAS G12C i 4.12 nM, 5 day CTG): 11.81 | BLISS Score ([2]; MIA-R clone 11, Pemi 12 nM + KRAS G12C i 12.35 nM, 5 day CTG): 1.32 | BLISS Score ([2]; MIA-R clone 11, Pemi 12 nM + KRAS G12C i 37.04 nM, 5 day CTG): 5.62 | BLISS Score ([2]; MIA-R clone 11, Pemi 12 nM + KRAS G12C i 111.11 nM, 5 day CTG): 11.57 | BLISS Score ([2]; MIA-R clone 11, Pemi 12 nM + KRAS G12C i 333.33 nM, 5 day CTG): −7.24 | BLISS Score ([2]; MIA-R clone 11, Pemi 12 nM + KRAS G12C i 1000.00 nM, 5 day CTG): 1.05 | BLISS Score ([2]; MIA-R clone 11, Pemi 37 nM + KRAS G12C i 0.15 nM, 5 day CTG): 14.47 | BLISS Score ([2]; MIA-R clone 11, Pemi 37 nM + KRAS G12C i 0.46 nM, 5 day CTG): 6.20 | BLISS Score ([2]; MIA-R clone 11, Pemi 37 nM + KRAS G12C i 1.37 nM, 5 day CTG): 6.05 | BLISS Score ([2]; MIA-R clone 11, Pemi 37 nM + KRAS G12C i 4.12 nM, 5 day CTG): 20.01 | BLISS Score ([2]; MIA-R clone 11, Pemi 37 nM + KRAS G12C i 12.35 nM, 5 day CTG): 15.07 | BLISS Score ([2]; MIA-R clone 11, Pemi 37 nM + KRAS G12C i 37.04 nM, 5 day CTG): 10.60 | BLISS Score ([2]; MIA-R clone 11, Pemi 37 nM + KRAS G12C i 111.11 nM, 5 day CTG): 8.39 | BLISS Score ([2]; MIA-R clone 11, Pemi 37 nM + KRAS G12C i 333.33 nM, 5 day CTG): −5.78 | BLISS Score ([2]; MIA-R clone 11, Pemi 37 nM + KRAS G12C i 1000.00 nM, 5 day CTG): 4.52 | BLISS Score ([2]; MIA-R clone 11, Pemi 111 nM + KRAS G12C i 0.15 nM, 5 day CTG): −3.03 | BLISS Score ([2]; MIA-R clone 11, Pemi 111 nM + KRAS G12C i 0.46 nM, 5 day CTG): 6.04 | BLISS Score ([2]; MIA-R clone 11, Pemi 111 nM + KRAS G12C i 1.37 nM, 5 day CTG): 8.76 | BLISS Score ([2]; MIA-R clone 11, Pemi 111 nM + KRAS G12C i 4.12 nM, 5 day CTG): 13.15 | BLISS Score ([2]; MIA-R clone 11, Pemi 111 nM + KRAS G12C i 12.35 nM, 5 day CTG): 15.70 | BLISS Score ([2]; MIA-R clone 11, Pemi 111 nM + KRAS G12C i 37.04 nM, 5 day CTG): 13.58 | BLISS Score ([2]; MIA-R clone 11, Pemi 111 nM + KRAS G12C i 111.11 nM, 5 day CTG): 9.80 | BLISS Score ([2]; MIA-R clone 11, Pemi 111 nM + KRAS G12C i 333.33 nM, 5 day CTG): 6.86 | BLISS Score ([2]; MIA-R clone 11, Pemi 111 nM + KRAS G12C i 1000.00 nM, 5 day CTG): 3.15 | BLISS Score ([2]; MIA-R clone 11, Pemi 333 nM + KRAS G12C i 0.15 nM, 5 day CTG): 6.68 | BLISS Score ([2]; MIA-R clone 11, Pemi 333 nM + KRAS G12C i 0.46 nM, 5 day CTG): 20.56 | BLISS Score ([2]; MIA-R clone 11, Pemi 333 nM + KRAS G12C i 1.37 nM, 5 day CTG): 17.83 | BLISS Score ([2]; MIA-R clone 11, Pemi 333 nM + KRAS G12C i 4.12 nM, 5 day CTG): 34.95 | BLISS Score ([2]; MIA-R clone 11, Pemi 333 nM + KRAS G12C i 12.35 nM, 5 day CTG): 20.46 | BLISS Score ([2]; MIA-R clone 11, Pemi 333 nM + KRAS G12C i 37.04 nM, 5 day CTG): 24.19 | BLISS Score ([2]; MIA-R clone 11, Pemi 333 nM + KRAS G12C i 111.11 nM, 5 day CTG): 25.28 | BLISS Score ([2]; MIA-R clone 11, Pemi 333 nM + KRAS G12C i 333.33 nM, 5 day CTG): 14.69 | BLISS Score ([2]; MIA-R clone 11, Pemi 333 nM + KRAS G12C i 1000.00 nM, 5 day CTG): 13.90 | BLISS Score ([2]; MIA-R clone 11, Pemi 1000 nM + KRAS G12C i 0.15 nM, 5 day CTG): −0.21 | BLISS Score ([2]; MIA-R clone 11, Pemi 1000 nM + KRAS G12C i 0.46 nM, 5 day CTG): 11.01 | BLISS Score ([2]; MIA-R clone 11, Pemi 1000 nM + KRAS G12C i 1.37 nM, 5 day CTG): 23.94 | BLISS Score ([2]; MIA-R clone 11, Pemi 1000 nM + KRAS G12C i 4.12 nM, 5 day CTG): 31.01 | BLISS Score ([2]; MIA-R clone 11, Pemi 1000 nM + KRAS G12C i 12.35 nM, 5 day CTG): 29.47 | BLISS Score ([2]; MIA-R clone 11, Pemi 1000 nM + KRAS G12C i 37.04 nM, 5 day CTG): 21.52 | BLISS Score ([2]; MIA-R clone 11, Pemi 1000 nM + KRAS G12C i 111.11 nM, 5 day CTG): 24.91
